Test results from patent publication US8735129B2, “Ginsenoside glycosidase derived from the genus Terrabacter, and use thereof” (Korea Research Institute of Bioscience and Biotechnology, priority 2009, dated 2014).
Read-outs that look alike come from different tables or passages of the source.

Experiments:
recombinant Bgl-gyp17 [1] = assay: Enzymatic hydrolysis of PPD-type ginsenosides (TLC, HPLC, NMR); assay type: biochemical, Terrabacter ginsenosidimutans Gsoil 3082; conditions: 0.2 U enzyme, 50 mM sodium phosphate pH 7.0, 37° C., hydrolysis of glucoses at C-3
Experimental: In order to analyze the specificity and selectivity of the recombinant enzyme for the hydrolysis of glucose at the C-3 and C-20 positions of PPD-type ginsenoside, ginsenoside Rb1, Rb2, Rc, Rd, and Rg3 were used as substrates. Each reaction mixture containing 0.2 U enzyme, 50 mM sodium phosphate buffer 0.1% (w/v) (pH 7.0), and the substrate was incubated at 37° C. Each sample was withdrawn at regular intervals, and an equal volume of water-saturated butanol was added to stop the reaction. The n-butanol fraction was evaporated to dryness, and any residual material was dissolved in CH3OH and then examined by TLC HPLC or NMR analysis.

tumor cells = conditions: cited from earlier work
[2] = cited from earlier work
[3] = tested on: F9 teratocarcinoma stem cells; conditions: cited from earlier work
[4] = tested on: B16 melanoma, MK-1 (stomach cancer cell), ovarian cancer cell (HRA); conditions: MK-1, HRA; cited from earlier work
recombinant Bgl-gyp17 [5] = assay: Enzymatic hydrolysis of PPD-type ginsenosides (TLC, HPLC, NMR); assay type: biochemical, Terrabacter ginsenosidimutans Gsoil 3082; conditions: 1 mg/ml ginsenoside Rb1, enzyme concentrations lower than 0.01 mg/ml
[6] = tested on: refolded recombinant ginsenoside glycosidase; assay: Reaction of refolded recombinant ginsenoside glycosidase with Rb1, TLC analysis; assay type: biochemical, Terrabacter ginsenosidimutans Gsoil 3082; conditions: 1 mg/ml Rb1 solution in 50 mM sodium phosphate
Experimental: E. coli C41(DE3) containing an overexpressing plasmid was cultured in LB-ampicillin media at 37° C. when the OD value at 600 nm reached 0.6, and treated with 0.5 mM isopropyl-β-D-thiogalactopyranoside for 12 hours to induce protein expression. The bacterial cells were obtained by centrifugation at 4° C. and 5,000×g for 20 minutes. The cell pellet was resuspended in a solution (suspension) consisting of 50 mM sodium phosphate, 5 mM EDTA, and 1% Triton X-100 (pH 7.0) and subjected to ultrasonification. Since the recombinant ginsenoside glycosidase was expressed as an insoluble inclusion body, the sonicated lysate was centrifuged at 4° C. and 20,000×g for 30 minutes to obtain a pellet. The pellet was washed twice with a suspension solution in the absence of Triton X-100. The inclusion body was stirred in a solution containing 50 mM sodium phosphate, 5 mM EDTA, and 8 M urea (pH 8.0) at room temperature overnight for solubilization. After centrifugation (20,000×g, 30 minutes, 4° C.), the solubilized protein was diluted with 40 volumes of a refolding buffer containing 50 mM sodium phosphate, 5% glycerol, 0.05% polyethylene glycol and 0.5 mM sodium chloride at pH 7.0, and refolding of the protein was performed at 4° C. for 24 hours. […] Protein similarity was determined by 10% SDS-PAGE and Coomassie Blue staining. […]

[7] = assay type: biochemical; conditions: after incubation at 45° C. for 30 minutes
Experimental: The thermo-dependence of the activity was assayed in 50 mM potassium phosphate buffer at various temperatures ranging from 4 to 90° C. Thermostability was tested by incubating aliquots of the enzyme in 50 mM potassium phosphate buffer for 30 minutes at different temperatures. After cooling the sample on ice for 10 minutes, residual activity was determined by a standard analysis;
The pH effect on the enzymatic activity was measured using 2.0 mM pNPGlc in the following buffer (50 mM):
Buffer: pH range of 2 to 10: KCl—HCl (pH 2), glycine-HCl (pH 3), sodium acetic acid (pH 4 and 5), sodium phosphate (pH 6 and 7), Tris-HCl (pH 8 and 9) and glycine-sodium hydroxide (pH 10).
The enzyme was incubated in each of the above mentioned buffers at 4° C. for 24 hours, and then pHPGlc was analyzed in 50 mM potassium buffer to measure the enzymatic stability according to pH change. The activity was measured by the above mentioned method.
The results were represented as an activity probability obtained at the optimum pH.
The temperature-dependent activity in the 50 mM potassium phosphate buffer was analyzed within the temperature range of 4-90° C. using 2.0 mM pNPGlc at the optimum pH for 5 minutes. […] The sample was cooled in ice for 10 minutes, and the residual activity was measured by pNPGlc analysis.

[8] = Kinetic studies (Km, Vmax) with pNPGlc; assay type: biochemical; conditions: hydrolysis of pNPGlc, 37° C., Cleland program
Experimental: Kinetic studies were performed with freshly purified enzyme using pNPGlc at the concentrations from 0.1 mM to 0.6 mM. Its absorbance at 405 nm was monitored at 37° C. for 20 minutes. The resulting data were used to determine Km and Vmax using the Enzyme Kinetics Program reported by Cleland.
In order to examine the substrate specificity of Bgl-gyp17, it was incubated in 50 mM sodium phosphate buffer containing 2.0 mM βα and β-type p-NP (p-nitrophenyl) and oNP (O-nitrophenyl)-glycosidase at pH 7.0 and 37° C. […] The Km and Vmax for the hydrolysis of pNPGlc by ginsenoside glycosidase were determined using 0-2 mM substrate and the enzyme kinetics program reported by Cleland. The values measured by the program were 4.24 mM and 0.10 mmol*min^−1*mg of protein^−1 for pNpGlc.

[9] = Specific activity of the enzyme with pNPGlc; assay type: biochemical
Experimental: Specific activity was measured using 90 μl of 50 mM sodium phosphate buffer containing 2.0 mM pNPGlc (p-nitrophenyl-β-D-glucopyranoside; Sigma) at pH 7.0, and 10 μl of the diluted purified enzyme was treated at 37° C. for 20 minutes before initiation of the reaction, followed by incubation. 0.1 ml of 1 M Na2CO3 was treated for 5 minutes to terminate the reaction, and the secretion of p-nitrophenol was immediately measured at 405 nm. One unit of activity was defined as the amount of enzyme that released 1 μmol of p-nitrophenol per minute. Specific activity is expressed in units per milligram protein. Protein concentration was measured using a Bio-Rad protein staining reagent according to the protocol. All analyses were performed at least three times.

CC(C)=CCC[C@](C)(O[C@@H]1O[C@H](CO)[C@@H](O)[C@H](O)[C@H]1O)[C@H]1CC[C@]2(C)[C@@H]1[C@H](O)C[C@@H]1[C@@]3(C)CC[C@H](O[C@@H]4O[C@H](CO)[C@@H](O)[C@H](O)[C@H]4O)C(C)(C)[C@@H]3CC[C@]12C [F2, ginsenoside F2]
conversion of the ginsenoside by the enzyme (product) (recombinant Bgl-gyp17 [1]): further converted into C—K (compound K) and C—K
effect on proliferation of tumor cells (tumor cells): suppressing the proliferation of tumor cells
effect on multi-drug resistance (tumor cells; tumor cells and bacteria): reversing multi-drug resistance

CC(C)=CCC[C@](C)(O[C@@H]1O[C@H](CO[C@@H]2O[C@@H](CO)[C@H](O)[C@H]2O)[C@@H](O)[C@H](O)[C@H]1O)[C@H]1CC[C@]2(C)[C@@H]1[C@H](O)C[C@@H]1[C@@]3(C)CC[C@H](O[C@@H]4O[C@H](CO)[C@@H](O)[C@H](O)[C@H]4O[C@@H]4O[C@H](CO)[C@@H](O)[C@H](O)[C@H]4O)C(C)(C)[C@@H]3CC[C@]12C [Rc, ginsenoside Rc]
in vivo absorption ([2]; orally administered into the human body): very low in vivo absorption
conversion of the ginsenoside by the enzyme (product) (recombinant Bgl-gyp17 [1]): C-Mc (compound Mc) and C-Mc

CC(C)=CCC[C@](C)(O)[C@H]1CC[C@]2(C)[C@@H]1[C@H](O)C[C@@H]1[C@@]3(C)CC[C@H](O)C(C)(C)[C@@H]3[C@@H](O[C@@H]3O[C@H](CO)[C@@H](O)[C@H](O)[C@H]3O)C[C@]12C [Rh1]
induction of differentiation [3]: strongly induce the differentiation
inhibitory effects on proliferation [4]: strong inhibitory effects

CC(C)=CCC[C@](C)(O)[C@H]1CC[C@]2(C)[C@@H]1[C@H](O)C[C@@H]1[C@@]3(C)CC[C@H](O[C@@H]4O[C@H](CO)[C@@H](O)[C@H](O)[C@H]4O)C(C)(C)[C@@H]3CC[C@]12C [Rh2, ginsenoside Rh2]
induction of differentiation [3]: strongly induce the differentiation
conversion of the ginsenoside by the enzyme (product) (recombinant Bgl-gyp17 [1]): converted Rh2 into PPD and PPD
inhibitory effects on proliferation [4]: strong inhibitory effects

CC(C)=CCC[C@](C)(O[C@@H]1O[C@H](CO[C@@H]2O[C@H](CO)[C@@H](O)[C@H](O)[C@H]2O)[C@@H](O)[C@H](O)[C@H]1O)[C@H]1CC[C@]2(C)[C@@H]1[C@H](O)C[C@@H]1[C@@]3(C)CC[C@H](O[C@@H]4O[C@H](CO)[C@@H](O)[C@H](O)[C@H]4O[C@@H]4O[C@H](CO)[C@@H](O)[C@H](O)[C@H]4O)C(C)(C)[C@@H]3CC[C@]12C [ginsenoside Rb1]
hydrolysis of the ginsenoside (recombinant Bgl-gyp17 [5]): completely hydrolyzed to produce gyp XVII
in vivo absorption ([2]; in vivo, po): very low in vivo absorption
conversion of the ginsenoside by the enzyme (product) (recombinant Bgl-gyp17 [1]): C—K
conversion of the ginsenoside (TLC) [6]: converted ginsenoside Rb1 into gyp XVII

CC(C)=CCC[C@](C)(O[C@@H]1O[C@H](CO[C@@H]2OC[C@H](O)[C@H](O)[C@H]2O)[C@@H](O)[C@H](O)[C@H]1O)[C@H]1CC[C@]2(C)[C@@H]1[C@H](O)C[C@@H]1[C@@]3(C)CC[C@H](O[C@@H]4O[C@H](CO)[C@@H](O)[C@H](O)[C@H]4O[C@@H]4O[C@H](CO)[C@@H](O)[C@H](O)[C@H]4O)C(C)(C)[C@@H]3CC[C@]12C [ginsenoside Rb2]
in vivo absorption ([2]; in vivo, po): very low in vivo absorption
conversion of the ginsenoside by the enzyme (product) (recombinant Bgl-gyp17 [1]): C—Y (compound Y)
conversion of the ginsenoside by the enzyme (product) (recombinant Bgl-gyp17 [1]; listed as Rb2): C—Y

B1: Bgl-gyp17: recombinant ginsenoside glycosidase from Terrabacter Gsoil 3082, SEQ ID NO. 1, 589 residues (protein, listed as Terrebacter sp.)
chain: MDPYEDPRLPVEVRVEDLLGRLSLEEKVGLMFQTVIEAGSDGTVLEHPGSISKSPTSTVVLDKHLTHFNVHALDDPRMAARWSNALQALAERTPHGIPVTVSTDPRHAFIENVGVSFSAGAFSQWPEPLGLAALRDADAVRRFADIARQEYVAVGIRAALHPTLDLATEPRWARQAGTFGQDPDLVTELGVAYLKGFQGDSLGSGSVACTSKHFPGGGPQKDGEDAHFPYGREQVYPGGRFADHLKPFPPIIEAGTAGIMPYYGMPVDLVVDGVEIEPIGFGYNKQVVTGLLREKLGYDGVVVTDWELVNDNHVGDQVLPARAWGVEHLDPHGRMELILEAGADQFGGEECVEILLDLVAQGRVTEARVDESARRILAVKFRLGLFENPYVDEDEAAATVGRDDFREEGYAAQARSVTVLHHEGGRLPLEHGLRIYAEQVSPEAVARHGKLVDRPEDADVAVVRLTAPFDPRSDLFLESWFHQGSLDFPPGLVARLERIAAVCPLVVDVVLDRPAVLTPLLRFASAVVGSFGSCDDALLDALTGTIAPVGRLPFDLPRSMDQVRAHGEDVPGYDDPLFPFGHGLRLDTE
modifications: PEPTIDE (1)..(589) amino acid sequence of Bgl-gyp17
notes: 1, 589 residues
loss of activity [7]: approximately 32%
Km [8]: 4.24 mM
Vmax [8]: 0.10 mmol*min^−1*mg of protein^−1
specific activity at 100% ([9]; control without metal ions or reagents, Table 5): ^aThe specific activity at 100% was 44.3 U/mg.
Specific activity (U/mg) ([9]; purification step: Crude extract): 23.4 U/mg
Specific activity (U/mg) ([9]; purification step: DEAE-cellulose purification): 65.8 U/mg
Specific activity (U/mg) ([9]; purification step: Ni purification): 65.0 U/mg
